In patent US8846730B2, “Compounds as cannabinoid receptor ligands” (priority 2008, dated 2014):
Like-named read-outs stand apart in the source and are kept apart here.

Key:
rodent models of pain = conditions: neuropathic, incisional, chronic and acute inflammatory pain; cited from earlier work
microglial = conditions: in vitro; cited from earlier work
animal models of pain = conditions: acute thermal, persistent, inflammatory and neuropathic pain models; cited from earlier work
[1] = tested on: ovariectomy-induced bone loss; conditions: mice, model for post-menopausal osteoporosis; cited from earlier work
[2] = tested on: rat formalin model of persistent pain; conditions: cited from earlier work
atherosclerotic lesions = conditions: low doses, apolipoprotein E knockout mice; cited from earlier work
human CB2 receptors = human CB2 receptors (Homo sapiens (Human), UniProt P34972); test: human CB2 radioligand binding assay ([3H]CP 55,940 competition)
Outline: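 Membranes from HEK293 cells stably expressing human CB2 (5 μg protein/well) competed against 0.5 nM [3H]CP 55,940 with five concentrations of test ligand (0.01 nM to 10 μM), pH 7.4 Tris buffer with BSA, 90 min at 30 °C. Filtration and scintillation counting; nonspecific binding with 10 μM unlabeled CP 55,940.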

rat CB2 receptors = rat CB2 receptors (Rattus norvegicus (Rat), UniProt Q9QZN9); test: rat CB2 radioligand binding assay ([3H]CP 55,940 competition); conditions: HEK293 membranes, 0.5 nM [3H]CP 55,940
Outline: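 Membranes from HEK293 cells stably expressing rat CB2 (20 μg protein/well) were incubated 45 min at 30 °C with 0.5 nM [3H]CP 55,940 and five displacer concentrations, in pH 7.4 Tris buffer with 0.5 mg/mL BSA. Bound radioactivity was measured by filtration. Nonspecific binding was defined with 10 μM unlabeled CP 55,940.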

[3] = biological target: rat CB2 receptors (HEK cells) (Rattus norvegicus (Rat), UniProt Q9QZN9); test: rat CB2 cyclase functional assay (HitHunter cAMP); format: cell-based
[4] = biological target: rat CB1 receptors (HEK cells) (Rattus norvegicus (Rat), UniProt P20272); test: rat CB1 cyclase functional assay (HitHunter cAMP); format: cell-based
[5] = HEK293 membranes, 0.5 nM [3H]CP 55,940, read-out: human CB2 (Ki)
[6] = HEK cells, forskolin 18 μM, read-out: rat CB2 cyclase (EC50)

human CB2 receptors, sequence (P34972 whole entry): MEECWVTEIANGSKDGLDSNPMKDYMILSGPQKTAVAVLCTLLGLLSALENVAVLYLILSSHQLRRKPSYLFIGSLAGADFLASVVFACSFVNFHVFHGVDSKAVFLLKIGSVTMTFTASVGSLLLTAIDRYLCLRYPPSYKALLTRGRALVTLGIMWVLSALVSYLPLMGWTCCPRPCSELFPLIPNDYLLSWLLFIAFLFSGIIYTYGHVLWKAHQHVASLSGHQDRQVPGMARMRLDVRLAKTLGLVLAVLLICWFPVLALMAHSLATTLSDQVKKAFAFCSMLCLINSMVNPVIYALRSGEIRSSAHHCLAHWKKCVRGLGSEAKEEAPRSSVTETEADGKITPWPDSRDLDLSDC
rat CB1 receptors (HEK cells), sequence (P20272 whole entry): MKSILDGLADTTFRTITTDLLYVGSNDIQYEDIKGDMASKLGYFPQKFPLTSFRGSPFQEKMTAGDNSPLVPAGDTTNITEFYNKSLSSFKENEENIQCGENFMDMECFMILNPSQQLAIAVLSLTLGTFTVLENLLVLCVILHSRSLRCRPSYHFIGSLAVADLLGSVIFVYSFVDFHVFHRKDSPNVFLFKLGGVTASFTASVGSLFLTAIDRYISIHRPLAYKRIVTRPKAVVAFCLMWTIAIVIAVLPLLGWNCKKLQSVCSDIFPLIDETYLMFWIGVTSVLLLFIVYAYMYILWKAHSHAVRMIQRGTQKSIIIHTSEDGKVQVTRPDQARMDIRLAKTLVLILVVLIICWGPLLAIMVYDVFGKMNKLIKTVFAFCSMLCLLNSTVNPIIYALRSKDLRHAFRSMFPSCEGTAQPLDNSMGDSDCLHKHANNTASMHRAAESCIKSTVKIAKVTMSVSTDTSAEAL

Row | Compound | Ki (human CB2 receptors; [5]) [nM] | Ki (rat CB2 receptors) [nM] | EC50 [4] [nM] | further results
1 | COc1ccc2c(c1)c(CCN1CCOCC1)c(C)n2C(=O)c1cccc(Cl)c1Cl [GW405833] |  |  |  | efficacy in pain models (rodent models of pain): efficacious
2 | CCCC(C)(C)c1ccc2c(c1)OC(C)(C)[C@@H]1CC=C(C)C[C@@H]21 [JWH-133] |  |  |  | effect on β-amyloid-induced microglial activation and neurotoxicity (microglial): abrogated β-amyloid-induced microglial activation and neurotoxicity
3 | CN1CCCCC1Cn1cc(C(=O)c2cc([N+](=O)[O-])ccc2I)c2ccccc21 (centres unmarked) [AM-1241] |  |  |  | analgesic efficacy (animal models of pain): robust analgesic efficacy
4 | SR144528 |  |  |  | effect on osteoclast activity and bone loss [1]: inhibit osteoclast activity and reverse ovariectomy-induced bone loss
5 | CCCCCCC(C)(C)c1cc(OC)c([C@@H]2C=C(CO)[C@@H]3C[C@H]2C3(C)C)c(OC)c1 [HU-308] |  |  |  | antinociceptive response [2]: elicits an antinociceptive response
6 | (−)-Δ^9-Tetrahydrocannabinol [THC] |  |  |  | effect on progression of atherosclerotic lesions (atherosclerotic lesions): slowed the progression of atherosclerotic lesions
7 | CN1CC[C@@H](COc2ccc(C(F)(F)F)cc2C(=O)/N=c2\sc(C(C)(C)C)cn2C[C@H]2CCCO2)C1 [Example 30, N-[(2Z)-5-tert-butyl-3-[(2R)-tetrahydrofuran-2-ylmethyl]-1,3-thiazol-2(3H)-ylidene]-2-{[(3R)-1-methylpyrrolidin-3-yl]methoxy}-5-(trifluoromethyl)benzamide] | 141 | 29 | 12100 | EC50 [3]: 4.98 nM
8 | CC(C)(C)c1cn(C[C@H]2CCCO2)/c(=N/C(=O)c2cc(C(F)(F)F)ccc2OC[C@H]2CCCCN2)s1 [Example 6, N-[(2Z)-5-tert-butyl-3-[(2R)-tetrahydrofuran-2-ylmethyl]-1,3-thiazol-2(3H)-ylidene]-2-[(2R)-piperidin-2-ylmethoxy]-5-(trifluoromethyl)benzamide] | 30 | 14 | 4500 | EC50 [3, 6]: 0.4 nM
9 | CN1CCC[C@H]1COc1ccc(C#N)cc1C(=O)/N=c1\sc(C(C)(C)C)cn1C[C@H]1CCCO1 [Example 59, N-[(2Z)-5-tert-butyl-3-[(2R)-tetrahydrofuran-2-ylmethyl]-1,3-thiazol-2(3H)-ylidene]-5-cyano-2-{[(2S)-1-methylpyrrolidin-2-yl]methoxy}benzamide] | 43 | 9.4 | 2270 | EC50 [3, 6]: 0.13 nM
10 | CC(C)(C)c1cn(C[C@H]2CCCO2)/c(=N/C(=O)c2cc(C(F)(F)F)ccc2OC[C@H](N)CO)s1 [Example 69, 2-{[(2R)-2-amino-3-hydroxypropyl]oxy}-N-[(2Z)-5-tert-butyl-3-[(2R)-tetrahydrofuran-2-ylmethyl]-1,3-thiazol-2(3H)-ylidene]-5-(trifluoromethyl)benzamide] |  | 0.9 | 1610 | Ki (human CB2 receptors): 3.6 nM; EC50 [3, 6]: 0.14 nM
11 | CC(C)(C)c1cn(C[C@H]2CCCO2)/c(=N/C(=O)c2cc(C(F)(F)F)ccc2OC[C@@H]2CCCN2)s1 [Example 44, N-[(2Z)-5-tert-butyl-3-[(2R)-tetrahydrofuran-2-ylmethyl]-1,3-thiazol-2(3H)-ylidene]-2-[(2S)-pyrrolidin-2-ylmethoxy]-5-(trifluoromethyl)benzamide] | 4.6 | 2 | 4730 | EC50 [3]: 0.39 nM
